# Results as given in US20250171431A1, “HETEROCYCLIC INHIBITORS OF IGF-1R FOR TREATMENT OF DISEASE” (HORIZON THERAPEUTICS IRELAND DAC, priority 2023, published 2025).
# Biological target: IGF-1R (Homo sapiens (Human), UniProt P08069)
# Assay: Example B-1: IGF-1R Assay (PC3 cells, IGF1 stimulation, AlphaLISA)
# Assay type: cell-based
# Conditions: 200 ng/mL IGF1 stimulation, read-out: Biological Activity against IGF-1R IC50
# In short: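 Readout is AlphaLISA signal from lysed PC3 cells, expressed as % inhibition versus vehicle and EC80 controls and banded by IC50. Before lysis, the cells were starved of serum for 2 h, exposed to 3× serially diluted compound for 2 h, and stimulated for 30 min with 200 ng/mL IGF1 (final).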
# IGF-1R, sequence (P08069 31-1367): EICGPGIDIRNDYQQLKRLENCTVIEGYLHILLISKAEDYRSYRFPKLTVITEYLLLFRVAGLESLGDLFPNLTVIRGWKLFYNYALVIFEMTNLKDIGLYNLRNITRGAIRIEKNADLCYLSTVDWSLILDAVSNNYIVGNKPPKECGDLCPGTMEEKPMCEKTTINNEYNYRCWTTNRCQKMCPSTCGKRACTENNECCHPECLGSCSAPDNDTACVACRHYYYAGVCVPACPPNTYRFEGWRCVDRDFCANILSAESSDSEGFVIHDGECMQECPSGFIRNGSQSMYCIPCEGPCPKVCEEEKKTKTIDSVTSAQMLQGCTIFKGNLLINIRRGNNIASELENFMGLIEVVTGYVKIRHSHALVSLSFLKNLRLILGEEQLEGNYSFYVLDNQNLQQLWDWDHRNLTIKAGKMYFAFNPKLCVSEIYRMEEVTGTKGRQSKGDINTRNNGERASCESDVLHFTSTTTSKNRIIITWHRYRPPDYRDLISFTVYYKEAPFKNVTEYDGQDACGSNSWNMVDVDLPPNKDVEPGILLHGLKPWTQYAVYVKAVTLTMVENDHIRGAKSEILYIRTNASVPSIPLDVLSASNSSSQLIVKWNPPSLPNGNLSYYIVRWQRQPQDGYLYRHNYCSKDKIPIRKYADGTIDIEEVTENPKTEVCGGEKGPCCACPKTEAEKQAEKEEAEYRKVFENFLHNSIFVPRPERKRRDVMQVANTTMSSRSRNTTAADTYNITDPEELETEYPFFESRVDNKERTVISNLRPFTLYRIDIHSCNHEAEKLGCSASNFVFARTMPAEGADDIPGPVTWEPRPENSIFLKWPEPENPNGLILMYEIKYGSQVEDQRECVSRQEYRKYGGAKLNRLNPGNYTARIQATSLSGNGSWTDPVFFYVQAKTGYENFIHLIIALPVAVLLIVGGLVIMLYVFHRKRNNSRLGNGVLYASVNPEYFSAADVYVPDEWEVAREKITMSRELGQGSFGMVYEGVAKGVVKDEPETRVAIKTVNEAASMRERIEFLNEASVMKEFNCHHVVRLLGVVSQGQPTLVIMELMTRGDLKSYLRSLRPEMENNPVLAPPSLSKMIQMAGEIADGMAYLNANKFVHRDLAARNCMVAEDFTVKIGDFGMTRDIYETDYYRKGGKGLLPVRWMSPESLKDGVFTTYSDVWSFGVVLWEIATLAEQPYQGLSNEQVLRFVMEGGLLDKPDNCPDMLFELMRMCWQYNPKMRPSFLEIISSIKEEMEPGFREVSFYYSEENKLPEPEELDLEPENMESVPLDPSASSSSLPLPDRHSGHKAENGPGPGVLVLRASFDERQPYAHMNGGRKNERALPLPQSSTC
row,SMILES,IC50 [nM]
1,"O=S1(=O)CCN(CCCOc2ccc(Nc3nccc(Nc4cnc5c(c4)C4CCC5C4)n3)cc2)CC1 (stereo not drawn) [Compound 371, 4-[3-(p-{4-(3-azatricyclo[6.2.1.0^2,7]undeca-2,4,6-trien-5-ylamino)-2-pyrimidinylamino}phenoxy)propyl]-1λ^6,4-thiazinane-1,1-dione]",≤ 500
2,"c1cc(Nc2cnc3c(c2)C2CCC3C2)nc(Nc2ccc(OCCCN3CCOCC3)cc2)n1 (stereo not drawn) [Compound 372, 4-(3-azatricyclo[6.2.1.0^2,7]undeca-2,4,6-trien-5-ylamino)-2-[p-(3-morpholinopropoxy)phenylamino]pyrimidine]",≤ 500
3,"c1cc(Nc2cnc3c(c2)C2CCC3CC2)nc(Nc2ccc(OCCCN3CCOCC3)cc2)n1 [Compound 373, 4-(3-azatricyclo[6.2.2.0^2,7]dodeca-2,4,6-trien-5-ylamino)-2-[p-(3-morpholinopropoxy)phenylamino] pyrimidine]",≤ 500
4,"COc1cc(Nc2nccc(Nc3cnc4c(c3)CCCC4)n2)ccc1OCCCN1CCCCC1 [Compound 374, 2-[3-methoxy-4-(3-piperidinopropoxy)phenylamino]-4-(5,6,7,8-tetrahydro-3-quinolylamino)pyrimidine]",≤ 500
5,"COc1cc(Nc2nccc(Nc3cnc4c(c3)CCCO4)n2)ccc1OCCCN1CCCCC1 [Compound 375, 4-(3,4-dihydro-2H-1-oxa-8-azanaphth-6-ylamino)-2-[3-methoxy-4-(3-piperidinopropoxy)phenylamino]pyrimidine]",≤ 500
6,"COc1cc(Nc2nccc(Nc3ccc4c(c3)OCCO4)n2)ccc1OCCCN1CCCCC1 [Compound 376, 4-(2,3-dihydro-1,4-benzodioxin-6-ylamino)-2-[3-methoxy-4-(3-piperidinopropoxy)phenylamino]pyrimidine]",≤ 500
7,"COc1cc(Nc2nccc(Nc3cnc4c(c3)CSCC4)n2)ccc1OCCCN1CCCCC1 [Compound 377, 4-(7,8-dihydro-5H-6-thia-1-azanaphth-3-ylamino)-2-[3-methoxy-4-(3-piperidinopropoxy)phenylamino]pyrimidine]",≤ 500
8,"COc1cc(Nc2nccc(Nc3cnc4c(c3)SCCC4)n2)ccc1OCCCN1CCCCC1 [Compound 378, 4-(3,4-dihydro-2H-1-thia-5-azanaphth-7-ylamino)-2-[3-methoxy-4-(3-piperidinopropoxy)phenylamino]pyrimidine]",≤ 500
9,"COc1cc(Nc2nccc(Nc3cnc4c(c3)CN(C)CC4)n2)ccc1OCCCN1CCCCC1 [Compound 379, 2-[3-methoxy-4-(3-piperidinopropoxy)phenylamino]-4-(6-methyl-5,6,7,8-tetrahydro-1,6-diaza-3-naphthylamino)pyrimidine]",2000 to 10000
10,"COc1cc(Nc2nccc(Nc3cnc4[nH]ccc4c3)n2)ccc1OCCCN1CCCCC1 [Compound 381, 4-(1H-1,7-diazainden-5-ylamino)-2-[3-methoxy-4-(3-piperidinopropoxy)phenylamino]pyrimidine]",≤ 500
11,"COc1cc(Nc2nccc(Nc3cnc4c(c3)OCCC4)n2)ccc1OCCCN1CCCCC1 [Compound 383, 4-(3,4-dihydro-2H-1-oxa-5-azanaphth-7-ylamino)-2-[3-methoxy-4-(3-piperidinopropoxy)phenylamino]pyrimidine]",≤ 500
12,"COc1cc(Nc2nccc(Nc3cnc4c(c3)COC(C)(C)C4)n2)ccc1OCCCN1CCCCC1 [Compound 385, 4-(7,7-dimethyl-7,8-dihydro-5H-6-oxa-1-azanaphth-3-ylamino)-2-[3-methoxy-4-(3-piperidinopropoxy)phenylamino]pyrimidine]",500 to 2000
13,"COc1cc(Nc2nccc(Nc3cnc4c(c3)C(C)(C)OC(C)(C)C4)n2)ccc1OCCCN1CCCCC1 [Compound 386, 2-[3-methoxy-4-(3-piperidinopropoxy)phenylamino]-4-(5,5,7,7-tetramethyl-7,8-dihydro-5H-6-oxa-1-azanaphth-3-ylamino)pyrimidine]",500 to 2000
14,"COc1cc(Nc2nccc(Nc3cnc4c(c3)OC(C)CO4)n2)ccc1OCCCN1CCCCC1 (stereo not drawn) [Compound 387, 2-[3-methoxy-4-(3-piperidinopropoxy)phenylamino]-4-(2-methyl-2,3-dihydro-1,4-dioxa-5-aza-7-naphthylamino)pyrimidine]",≤ 500
15,"c1cc(Nc2cnc3c(c2)OCCO3)nc(Nc2ccc(OCCCN3CCOCC3)cc2)n1 [Compound 388, 4-(2,3-dihydro-1,4-dioxa-5-aza-7-naphthylamino)-2-[p-(3-morpholinopropoxy)phenylamino]pyrimidine]",≤ 500
16,"COc1cc(Nc2nccc(Nc3cnc4c(c3)OCCO4)n2)ccc1OCCCN1CCOCC1 [Compound 389, 4-(2,3-dihydro-1,4-dioxa-5-aza-7-naphthylamino)-2-[3-methoxy-4-(3-morpholinopropoxy)phenylamino]pyrimidine]",≤ 500
17,"O=S1(=O)CCc2ncc(Nc3ccnc(Nc4ccc(OCCCN5CCOCC5)cc4)n3)cc2C1 [Compound 390, 3-{2-[p-(3-morpholinopropoxy)phenylamino]-4-pyrimidinylamino}-5,6,7,8-tetrahydro-6H,6H-6λ^6-thia-1-azanaphthalene-6,6-dione]",500 to 2000
18,"COc1cc(Nc2nccc(Nc3cnc4c(c3)CS(=O)(=O)CC4)n2)ccc1OCCCN1CCCCC1 [Compound 391, 3-{2-[3-methoxy-4-(3-piperidinopropoxy)phenylamino]-4-pyrimidinylamino}-5,6,7,8-tetrahydro-6H,6H-6λ^6-thia-1-azanaphthalene-6,6-dione]",2000 to 10000
19,"COc1cc(Nc2nccc(Nc3cnc4c(F)c(F)ccc4c3)n2)ccc1OCCCN1CCCCC1 [Compound 393, 4-(7,8-difluoro-3-quinolylamino)-2-[3-methoxy-4-(3-piperidinopropoxy)phenylamino]pyrimidine]",≤ 500
20,"O=S1(=O)CCN(CCCOc2ccc(Nc3nccc(Nc4cnc5c(Cl)cccc5c4)n3)cc2)CC1 [Compound 398, 4-(3-{p-[4-(8-chloro-3-quinolylamino)-2-pyrimidinylamino]phenoxy}propyl)-1λ^6,4-thiazinane-1,1-dione]",≤ 500
21,"COc1ccc2cc(Nc3ccnc(Nc4ccc(OCCCN5CCS(=O)(=O)CC5)cc4)n3)cnc2c1 [Compound 400, 4-(3-{p-[4-(7-methoxy-3-quinolylamino)-2-pyrimidinylamino]phenoxy}propyl)-1λ^6,4-thiazinane-1,1-dione]",500 to 2000
22,"c1ccc2ncc(Nc3ccnc(Nc4ccc(OCCCN5CCCCC5)c(OCC5CCCO5)c4)n3)cc2c1 (stereo not drawn) [Compound 402, 2-{4-(3-piperidinopropoxy)-3-[(tetrahydro-2-furyl)methoxy]phenylamino}-4-(3-quinolylamino)pyrimidine]",≤ 500

# Continued, values first:
row,IC50 [nM],SMILES
1,≤ 500,"c1ccc2ncc(Nc3ccnc(Nc4ccc(OCCCN5CCOCC5)cc4)n3)cc2c1 [Compound 394, 2-[p-(3-morpholinopropoxy)phenylamino]-4-(3-quinolylamino)pyrimidine]"
2,2000 to 10000,"FC(F)(F)c1ccc2cc(Nc3ccnc(Nc4ccc(OCCCN5CCOCC5)cc4)n3)cnc2c1 [Compound 395, 2-[p-(3-morpholinopropoxy)phenylamino]-4-[7-(trifluoromethyl)-3-quinolylamino]pyrimidine]"
3,2000 to 10000,"N#Cc1ccc2ncc(Nc3ccnc(Nc4ccc(OCCCN5CCOCC5)cc4)n3)cc2c1 [Compound 396, 3-{2-[p-(3-morpholinopropoxy)phenylamino]-4-pyrimidinylamino}-6-quinolinecarbonitrile]"
4,2000 to 10000,"CCc1ccc2cc(Nc3ccnc(Nc4ccc(OCCCN5CCOCC5)cc4)n3)cnc2c1 [Compound 397, 4-(7-ethyl-3-quinolylamino)-2-[p-(3-morpholinopropoxy)phenylamino]pyrimidine]"
5,2000 to 10000,"O=S1(=O)CCN(CCCOc2ccc(Nc3nccc(Nc4cnc5cc(Cl)ccc5c4)n3)cc2)CC1 [Compound 399, 4-(3-{p-[4-(7-chloro-3-quinolylamino)-2-pyrimidinylamino]phenoxy}propyl)-1λ^6,4-thiazinane-1,1-dione]"
6,≤ 500,"Clc1ccc2ncc(Nc3ccnc(Nc4ccc(OCCCN5CCOCC5)cc4)n3)cc2c1 [Compound 401, 4-(6-chloro-3-quinolylamino)-2-[p-(3-morpholinopropoxy)phenylamino]pyrimidine]"
7,2000 to 10000,"Fc1ccc2cc(Nc3ccnc(Nc4ccc(OCCCN5CCOCC5)cc4)n3)cnc2c1F [Compound 403, 4-(7,8-difluoro-3-quinolylamino)-2-[p-(3-morpholinopropoxy)phenylamino]pyrimidine]"
8,2000 to 10000,"FC(F)(F)Oc1cccc2cc(Nc3ccnc(Nc4ccc(OCCCN5CCOCC5)cc4)n3)cnc12 [Compound 404, 2-[p-(3-morpholinopropoxy)phenylamino]-4-(8-trifluoromethoxy-3-quinolylamino)pyrimidine]"
9,2000 to 10000,"c1cc(Nc2cnc3cc(C4CC4)ccc3c2)nc(Nc2ccc(OCCCN3CCOCC3)cc2)n1 [Compound 405, 4-(7-cyclopropyl-3-quinolylamino)-2-[p-(3-morpholinopropoxy)phenylamino]pyrimidine]"
10,2000 to 10000,"COc1ccc2cc(Nc3ccnc(Nc4ccc(OCCCN5CCOCC5)cc4)n3)cnc2c1 [Compound 406, 4-(7-methoxy-3-quinolylamino)-2-[p-(3-morpholinopropoxy)phenylamino]pyrimidine]"
11,500 to 2000,"Cc1ccc2cc(Nc3ccnc(Nc4ccc(OCCCN5CCOCC5)cc4)n3)cnc2c1 [Compound 407, 4-(7-methyl-3-quinolylamino)-2-[p-(3-morpholinopropoxy)phenylamino]pyrimidine]"
12,≤ 500,"Oc1ccc2cc(Nc3ccnc(Nc4ccc(OCCCN5CCOCC5)cc4)n3)cnc2c1 [Compound 408, 3-{2-[p-(3-morpholinopropoxy)phenylamino]-4-pyrimidinylamino}-7-quinolinol]"
13,2000 to 10000,"Brc1ccc2cc(Nc3ccnc(Nc4ccc(OCCCN5CCOCC5)cc4)n3)cnc2c1 [Compound 409, 4-(7-bromo-3-quinolylamino)-2-[p-(3-morpholinopropoxy)phenylamino]pyrimidine]"
14,2000 to 10000,"Clc1ccc2cc(Nc3ccnc(Nc4ccc(OCCCN5CCOCC5)cc4)n3)cnc2c1 [Compound 410, 4-(7-chloro-3-quinolylamino)-2-[p-(3-morpholinopropoxy)phenylamino]pyrimidine]"
